Tests used:
ER-α in MCF-7 cells = biological target: T1, ER-α in MCF-7 cells (Homo sapiens, UniProt P03372); experiment: Breast Cancer Cell ER-α In Cell Western Assay (SP1); format: cell-based; settings: 4 or 24 hr post compound addition; for Emax: MCF7, SP1 antibody, read-out: ER-α In Cell Western Assay (SP1) Max Response; for DC50: SP1 antibody, read-out: ER-α In Cell Western Assay (SP1) IC50
T1 construct: endogenous in cells; host or cells: MCF-7
T1 sequence (P03372 1-595): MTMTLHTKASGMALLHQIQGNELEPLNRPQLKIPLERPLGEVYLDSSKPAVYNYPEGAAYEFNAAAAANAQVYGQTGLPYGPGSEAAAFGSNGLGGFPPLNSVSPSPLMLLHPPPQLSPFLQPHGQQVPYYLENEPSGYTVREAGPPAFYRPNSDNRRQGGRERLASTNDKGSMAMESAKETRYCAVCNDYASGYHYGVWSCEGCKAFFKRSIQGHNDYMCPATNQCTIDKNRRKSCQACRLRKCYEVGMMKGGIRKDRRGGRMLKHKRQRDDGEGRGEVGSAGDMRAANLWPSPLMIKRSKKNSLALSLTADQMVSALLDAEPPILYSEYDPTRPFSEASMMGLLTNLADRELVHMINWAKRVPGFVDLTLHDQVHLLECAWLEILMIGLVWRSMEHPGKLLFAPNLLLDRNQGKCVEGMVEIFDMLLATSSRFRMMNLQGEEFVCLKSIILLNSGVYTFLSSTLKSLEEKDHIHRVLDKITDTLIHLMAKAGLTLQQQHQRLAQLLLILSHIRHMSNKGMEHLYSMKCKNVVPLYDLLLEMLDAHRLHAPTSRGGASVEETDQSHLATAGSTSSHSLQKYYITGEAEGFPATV
Procedure, shortened: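 ER-α levels quantified by in-cell western: SP1 signal normalised to DRAQ5 DNA stain, relative to untreated cells (% ER). Compounds at 0.3–0.000003 μM final, 11-point semilog series, 4 or 24 h exposure of MCF-7 cells grown in charcoal-stripped serum.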

MCF-7 cells = experiment: Breast Cancer Cell Viability Assays (MCF-7, CellTiter-Glo); format: cell-based; settings: 5 days' compound exposure; for IC50: Homo sapiens, MCF7, 120 h
Procedure, shortened: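 Percent viability, background-subtracted against untreated wells, was taken from CellTiter-Glo luminescence after 5 days' exposure of MCF-7 cells. Compounds were tested at eleven semilog concentrations, final 0.3–0.000003 μM, in RPMI containing 10% FBS.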

Row | SMILES | Emax (ER-α in MCF-7 cells) | DC50 (ER-α in MCF-7 cells) | MCF7 Viability Assay Max Response (MCF-7 cells) | IC50 (MCF-7 cells)
1 | N#Cc1cccnc1/C(=C(\c1ccc(/C=C/C(=O)O)cc1)c1ccc2[nH]nc(F)c2c1)C1CCC1 [Example 247, (E)-3-(4-((E)-2-(3-Cyanopyridin-2-yl)-2-cyclobutyl-1-(3-fluoro-1H-indazol-5-yl)vinyl)phenyl)acrylic acid] | ≥ 40% | ≤ 100 nM | ++ (++ = a single % value ≧ 40%) | ≤ 100 nM
2 | N#Cc1n[nH]c2ccc(/C(=C(/c3ccc(F)cc3Cl)C3CCC3)c3ccc(/C=C/C(=O)O)cc3)cc12 [Example 248, (E)-3-(4-((E)-2-(2-Chloro-4-fluorophenyl)-1-(3-cyano-1H-indazol-5-yl)-2-cyclobutylvinyl)phenyl)acrylic acid] | ≥ 40% | ≤ 100 nM | ++ (++ = a single % value ≧ 40%) | ≤ 100 nM
3 | N#Cc1cc(Cl)cnc1/C(=C(\c1ccc(/C=C/C(=O)O)cc1)c1ccc2[nH]nc(F)c2c1)C1CCC1 [Example 249, (E)-3-(4-((E)-2-(5-Chloro-3 cyanopyridin-2-yl)-2-cyclobutyl-1-(3-fluoro-1H-indazol-5-yl)vinyl)phenyl)acrylic acid] | ≥ 40% | ≤ 100 nM | ++ (++ = a single % value ≧ 40%) | ≤ 100 nM
4 | O=C(O)/C=C/c1ccc(/C(=C(\c2ncc(C(F)(F)F)cc2Cl)C2CCC2)c2ccc3[nH]nc(F)c3c2)cc1 [Example 250, (E)-3-(4-((E)-2-(3-Chloro-5-(trifluoromethyl)pyridin-2-yl)-2-cyclobutyl-1-(3-fluoro-1H-indazol-5-yl)vinyl)phenyl)acrylic acid] | ≥ 40% | ≤ 100 nM | ++ (++ = a single % value ≧ 40%) | ≤ 100 nM
5 | O=C(O)/C=C/c1ccc(/C(=C(\c2ncc(F)cc2Cl)C2CCC2)c2ccc3[nH]nc(F)c3c2)cc1 [Example 251, (E)-3-(4-((E)-2-(3-Chloro-5-fluoropyridin-2-yl)-2-cyclobutyl-1-(3-fluoro-1H-indazol-5-yl)vinyl)phenyl)acrylic acid] | ≥ 40% | ≤ 100 nM | ++ (++ = a single % value ≧ 40%) | ≤ 100 nM
6 | O=C(O)/C=C/c1ccc(/C(=C(\c2ccc(F)cc2Cl)C2CCC2)c2ccc3[nH]nc(C(F)(F)F)c3c2)cc1 [Example 252, (E)-3-(4-((E)-2-(2-Chloro-4-fluorophenyl)-2-cyclobutyl-1-(3-(trifluoromethyl)-1H-indazol-5-yl)vinyl)phenyl)acrylic acid] | ≥ 40% | ≤ 100 nM | ++ (++ = a single % value ≧ 40%) | > 100 nM
7 | O=C(O)/C=C/c1ccc(/C(=C(\c2ncc(F)cc2Cl)C2CCC2)c2ccc3[nH]nc(F)c3c2)cc1F [Example 253, (E)-3-(4-((Z)-2-(3-Chloro-5-fluoropyridin-2-yl)-2-cyclobutyl-1-(3-fluoro-1H-indazol-5-yl)vinyl)-2-fluorophenyl)acrylic acid] | ≥ 40% | ≤ 100 nM | ++ (++ = a single % value ≧ 40%) | ≤ 100 nM
8 | O=C(O)/C=C/c1ccc(/C(=C(\c2ncc(Cl)cc2Cl)C2CCC2)c2ccc3[nH]nc(F)c3c2)cc1F [Example 254, (E)-3-(4-((Z)-2-Cyclobutyl-2-(3,5-dichloropyridin-2-yl)-1-(3-fluoro-1H-indazol-5-yl)vinyl)-2-fluorophenyl)acrylic acid] | ≥ 40% | ≤ 100 nM | ++ (++ = a single % value ≧ 40%) | ≤ 100 nM
9 | CCOC(=O)/C=C/c1ccc(/C(=C(\c2ncc(Cl)cc2Cl)C2CCC2)c2ccc3[nH]nc(F)c3c2)cc1F [Example 255, (E)-Ethyl 3-(4-((Z)-2-cyclobutyl-2-(3,5-dichloropyridin-2-yl)-1-(3-fluoro-1H-indazol-5-yl)vinyl)-2-fluorophenyl)acrylate] | ≥ 40% | ≤ 100 nM | + (+ = a single % value < 40%) | ≤ 100 nM
10 | COc1ccc(/C(=C(\c2ccc(/C=C/C(=O)O)c(F)c2)c2ccc3[nH]nc(F)c3c2)C2CCC2)c(Cl)c1 [Example 256, (E)-3-(4-((Z)-2-(2-Chloro-4-methoxyphenyl)-2-cyclobutyl-1-(3-fluoro-1H-indazol-5-yl)vinyl)-2-fluorophenyl)acrylic acid] | ≥ 40% | ≤ 100 nM | ++ (++ = a single % value ≧ 40%) | ≤ 100 nM
11 | O=C(O)/C=C/c1ccc(/C(=C(\c2ncc(Cl)cc2C(F)(F)F)C2CCC2)c2ccc3[nH]nc(F)c3c2)cc1 [Example 257, (E)-3-(4-((E)-2-(5-Chloro-3-(trifluoromethyl)pyridin-2-yl)-2-cyclobutyl-1-(3-fluoro-1H-indazol-5-yl)vinyl)phenyl)acrylic acid] | ≥ 40% | ≤ 100 nM | ++ (++ = a single % value ≧ 40%) | ≤ 100 nM
12 | O=C(O)/C=C/c1ccc(/C(=C(\c2cnc(C(F)(F)F)cc2C(F)(F)F)C2CCC2)c2ccc3[nH]nc(F)c3c2)cc1 [Example 258, (E)-3-(4-((E)-2-(4,6-bis(Trifluoromethyl)pyridin-3-yl)-2-cyclobutyl-1-(3-fluoro-1H-indazol-5-yl)vinyl)phenyl)acrylic acid] | ≥ 40% | ≤ 100 nM | ++ (++ = a single % value ≧ 40%) | ≤ 100 nM
13 | O=C(O)/C=C/c1ccc(/C(=C(\c2ncccc2Cl)C2CCC2)c2ccc3[nH]nc(F)c3c2)cn1 [Example 259, (E)-3-(5-((Z)-2-(3-Chloropyridin-2-yl)-2-cyclobutyl-1-(3-fluoro-1H-indazol-5-yl)vinyl)pyridin-2-yl)acrylic acid] | ≥ 40% | ≤ 100 nM | ++ (++ = a single % value ≧ 40%) | ≤ 100 nM
14 | O=C(O)/C=C/c1ccc(/C(=C(\c2ncccc2C(F)(F)F)C2CCC2)c2ccc3[nH]nc(F)c3c2)cn1 [Example 260, (E)-3-(5-((Z)-2-Cyclobutyl-1-(3-fluoro-1H-indazol-5-yl)-2-(3-(trifluoromethyl)pyridin-2-yl)vinyl)pyridin-2-yl)acrylic acid] | ≥ 40% | ≤ 100 nM | ++ (++ = a single % value ≧ 40%) | ≤ 100 nM
15 | CC/C(=C(/c1ccc(/C=C/C(=O)O)cc1)c1ccc2[nH]nc(F)c2c1)c1ccccc1Cl [Example 261, (E)-3-(4-((E)-2-(2-Chlorophenyl)-1-(3-fluoro-1H-indazol-5-yl)but-1-en-1-yl)phenyl)acrylic acid] | ≥ 40% | ≤ 100 nM | ++ (++ = a single % value ≧ 40%) | ≤ 100 nM
16 | CC/C(=C(/c1ccc(/C=C/C(=O)O)cc1)c1ccc2[nH]nc(F)c2c1)c1ncccc1Cl [Example 262, (E)-3-(4-((E)-2-(3-Chloropyridin-2-yl)-1-(3-fluoro-1H-indazol-5-yl)but-1-en-1-yl)phenyl)acrylic acid] | ≥ 40% | ≤ 100 nM | ++ (++ = a single % value ≧ 40%) | ≤ 100 nM
17 | CC/C(=C(/c1ccc(/C=C/C(=O)O)cc1)c1ccc2[nH]nc(F)c2c1)c1ncccc1C(F)(F)F [Example 263, (E)-3-(4-((E)-1-(3-Fluoro-1H-indazol-5-yl)-2-(3-(trifluoromethyl)pyridin-2-yl)but-1-en-1-yl)phenyl)acrylic acid] | ≥ 40% | ≤ 100 nM | ++ (++ = a single % value ≧ 40%) | ≤ 100 nM
18 | CC/C(=C(/c1ccc(/C=C/C(=O)O)cc1)c1ccc2[nH]nc(F)c2c1)c1ncc(Cl)cc1Cl [Example 264, (E)-3-(4-((E)-2-(3,5-Dichloropyridin-2-yl)-1-(3-fluoro-1H-indazol-5-yl)but-1-en-1-yl)phenyl)acrylic acid] | ≥ 40% | ≤ 100 nM | ++ (++ = a single % value ≧ 40%) | ≤ 100 nM
19 | O=C(O)/C=C/c1ccc(/C(=C(\c2ccccc2)C2CCC2)c2ccc3[nH]nc(F)c3c2)cc1F [Example 265, (E)-3-(4-((Z)-2-Cyclobutyl-1-(3-fluoro-1H-indazol-5-yl)-2-phenylvinyl)-2-fluorophenyl)acrylic acid] | ≥ 40% | ≤ 100 nM | ++ (++ = a single % value ≧ 40%) | ≤ 100 nM
20 | C/C(=C\C(=O)O)c1ccc(/C(=C(\c2ccccc2)C2CCC2)c2ccc3[nH]nc(F)c3c2)cc1 [Example 266, (E)-3-(4-((E)-2-Cyclobutyl-1-(3-fluoro-1H-indazol-5-yl)-2-phenylvinyl)phenyl)but-2-enoic acid] | ≥ 40% | ≤ 100 nM | ++ (++ = a single % value ≧ 40%) | ≤ 100 nM
